“Also recorded” adds a separate entry of the source.
Legend:
[1] = system: UV-exposed skin of SKH-1 hairless mice; test: Histology of UVB-exposed dorsal skin after bucillamine pre-treatment; type: in vivo
Excerpt: (§1) Animals and treatment for Example 2. Female SKH-1 hairless mice (6 weeks old) were purchased from Charles River Laboratories (Wilmington, Mass.). After their arrival, animals were housed at UCDHSC vivarium under specific pathogen-free conditions according to the National Institutes of Health Animal Care Guidelines under an Institutional protocol reviewed and approved by the Institutional Animal Care and Use Committee (IACUC). Animals were allowed to acclimatize for a week prior to the experiment. Animals were fed Purina chow diet and water ad libitum. Throughout the experimental protocol, the mice were maintained at standard conditions; temperature 24±2° C., relative humidity 50±10%, and 12 hour room light/12 hour dark cycle. Mice were divided into four groups. […] The remaining animals were divided into UV exposure alone (Group 2), UV+saline treatment (Group 3) and UV+bucillamine treatment (Group 4). Mice in groups 2-4 were exposed to two doses of 230 mJ/cm^2 UVB, 24 hours apart. Two hours prior to each UVB exposure, mice in groups 3 and 4 were treated with normal saline (Group 3) or bucillamine at a concentration of 20 mg/kg of body weight (Group 4) subcutaneously. Animals were sacrificed after the last UVB exposure at various time points, and the dorsal skin was surgically removed and used for further analysis.
UVB Source. We employed four FS-40-T-12-UVB sunlamps with UVB spectra 305 Dosimeter (Daavlin, Bryan, Ohio), which emitted about 80% radiation in the range of 280-340 nm with a peak emission at 314 nm as monitored with a SEL 240 photodetector, 103 filter and 1008 diffuser attached to an IL1400A NIST Traceable Radiometer/Photometer from International Light (Newburyport, Mass.). The UVB irradiation doses were also calibrated using an IL1400A radiometer.
Histopathology. Skin samples were fixed in 10% formalin and embedded in paraffin. Vertical sections (4 μm thickness) were cut and mounted on a glass slide, and stained with hematoxylin and eosin followed by microscopic evaluation of the slides. SKH-1 hairless mice were unexposed or irradiated with UVB (230 mJ/cm^2) twice, 24 hours apart. Mice irradiated with UVB were untreated or pre-treated with bucillamine or saline. Skin samples were collected at 6 hours and 24 hours after the last UVB exposure, and processed for histopathological analysis.

p53 [2] = test: UVB-mediated total p53 induction in skin lysates (immunoblot); type: in vivo, mice; settings: 20 mg/kg s.c. pre-treatment
Excerpt: as §1, with “Animals were sacrificed after the last UVB exposure at various time points, and the dorsal skin was surgically removed and used for further analysis.” left out
(§2) SDS-PAGE and immunoblot analysis. Proteins were analyzed by SDS-PAGE (12% gels) followed by transfer to a polyvinylidene difluoride membrane (0.4 μM) in 25 mM Tris, 192 mM glycine, and 20% methanol at 110 V for 1 hour. […]

SKH-1 mice = test: Preliminary experiment assessing adverse effects of bucillamine alone in SKH-1 mice; type: in vivo; settings: 20 mg/kg s.c., two doses 24 hours apart, no UVB
Protocol: In order to assess any adverse effects of bucillamine and UV exposure separately, a preliminary experiment was carried out in which SKH-1 mice were either treated with bucillamine (20 mg/kg s.c.) or UVB (230 mJ/cm^2) irradiation. Bucillamine can, for example, be administered intravenously, subcutaneously, intramuscularly or orally. Subcutaneous administration was used because it is a relatively easy route and the least likely to injure the animal during administration. The selection of bucillamine dose and UVB dose was based on previously published studies (13, 19, 21, 22). High dose of UVB (230 mJ/cm^2) was selected to investigate bucillamine effect on acute photodamage. Each group of animals received two doses of bucillamine or UVB, 24 hours apart. […] UVB exposure caused edema, erythema and thickening of the exposed skin.

p53 (Ser15, Ser20) = test: UVB-induced phosphorylation of p53 at Ser15 and Ser20 in skin (immunoblot); type: in vivo, mice; settings: 20 mg/kg s.c. pre-treatment
Excerpt: as §1, with “Animals were sacrificed after the last UVB exposure at various time points, and the dorsal skin was surgically removed and used for further analysis.” left out
as §2

p53 [3] = test: Immunohistochemical analysis of nuclear p53 staining in epidermal keratinocytes; type: in vivo, mice; settings: 24 hours after the last UVB exposure; 20 mg/kg s.c. pre-treatment
Excerpt: as §1, with “at […]” for “at UCDHSC”, “subcutaneously. […] All samples” for “subcutaneously. Animals”, “were coded and evaluated by” for “were sacrificed after the last UVB exposure”, “at least two investigators in a blinded manner. […]” for “at various time points, and the dorsal skin was surgically removed and used for further analysis.”

PUMA = test: UVB-induced activation of PUMA, downstream target of p53, in skin; type: in vivo, mice; settings: 12 and 24 hours after the last UVB exposure; 20 mg/kg s.c. pre-treatment
Excerpt: as §1, with “Animals were sacrificed after the last UVB exposure at various time points, and the dorsal skin was surgically removed and used for further analysis.” left out
as §2

[4] = system: ubiquitin proteasomal pathway (UPP) in 8B20 mouse melanoma cells; test: Ubiquitin immunoblot controls for UPP inhibition in 8B20 cells; type: cell-based; settings: 50 μM, negative control
Protocol: As a positive control of UPP inhibition, we used 8B20 mouse melanoma cells treated with UPP inhibitors MG132 (10 μM) and Lactacystin (10 μM), and as a negative control we used 8B20 cells treated with etoposide (50 μM), a DNA damaging agent.
SDS-PAGE and immunoblot analysis. Proteins were analyzed by SDS-PAGE (12% gels) followed by transfer to a polyvinylidene difluoride membrane (0.4 μM) in 25 mM Tris, 192 mM glycine, and 20% methanol at 110 V for 1 hour. Membranes were blocked overnight in 10 mM Tris-HCl, pH 8.0, 125 mM NaCl, and 0.2% (v/v) Tween 20 containing 5% (w/v) nonfat dry milk (TBST-M5). Immunoblot analysis of the total protein bands were visualized using enhanced chemiluminescence as described by the manufacturer (Pierce Biotechnology, Inc., Rockford, Ill.). Immunoblots were subsequently stripped of antibodies by incubating for 15-20 minutes at 37° C. with Restore Western Stripping Buffer (Pierce Biotechnology, Inc., Rockford, Ill.) and re-probed with β-actin antibody to confirm protein loading. Densitometric analysis of the membranes was performed using GelDoc 200 (Bio-Rad Laboratories, Hercules, Calif.).

[5] = 12 and 24 hours after the last UVB exposure
[6] = 6 hours after the last UVB exposure

| Compound | UVB-induced erythema of dorsal skin ([1]; 20 mg/kg s.c. 2 h before each of two 230 mJ/cm^2 UVB exposures) | UVB-induced inflammation ([1]; 12 and 24 hours after the last UVB exposure, pre-treatment) | epidermal necrosis (histology) ([1]; 6 hours after the last UVB exposure, 20 mg/kg s.c. pre-treatment) | UV-effects on inflammation (dermal edema, leukocyte infiltration, dilatation of blood vessels) ([1]; 24 hours after the last UVB exposure, 20 mg/kg s.c. pre-treatment) | p53 level (p53 [2]; [5]) | induction of total p53 (p53 [2]; [6]) | adverse effects (SKH-1 mice) | phosphorylation of p53 at Ser15 and Ser20 (p53 (Ser15, Ser20); [5]) | phosphorylation of p53 at Ser15 and Ser20 (p53 (Ser15, Ser20); [6]) | nuclear p53 staining in epidermal keratinocytes (p53 [3]) | activation of PUMA (PUMA) | ubiquitin reactive high molecular weight bands (polyubiquitinated species) [4] |
| --- | --- | --- | --- | --- | --- | --- | --- | --- | --- | --- | --- | --- |
| CC(C)(S)C(=O)N[C@@H](CS)C(=O)O [bucillamine, N-(2-mercapto-2-methylpropionyl)-L-cysteine] | attenuated the erythema | attenuated the inflammation | epidermal necrosis was less prominent | attenuated the UV-effects on inflammation | further decreased | attenuated this effect | no adverse effects | further diminished the phosphorylation; also recorded: quick decrease | attenuated this effect | diminished this effect | attenuated the activation of PUMA | – |
| COc1cc([C@@H]2c3cc4c(cc3[C@@H](O[C@@H]3O[C@@H]5CO[C@@H](C)O[C@H]5[C@H](O)[C@H]3O)[C@H]3COC(=O)[C@H]23)OCO4)cc(OC)c1O [etoposide] | – | – | – | – | – | – | – | – | – | – | – | no polyubiquitinated species |

— patent publication US20090169497A1, “Treatment and Prevention of Skin Injury Due to Exposure to Ultraviolet Light” (priority 2007, published 2009)
